Assay results as given in patent US5004690A, “Ascorbic acid intermediates and process enzymes” (Genetech, Inc., priority 1989, dated 1991).
Where two headings read alike, the source gives them in different places.

Target: T1, 2,5-DKG reductase (Corynebacterium sp., UniProt P06632)
T1 construct: resuspension in 650 ml Tris buffer containing 2 mg/ml lyozyme to release intracellular proteins; endogenous in cells; host or cells: Corynebacterium sp; ATCC 31090 (enzyme purified in house from the cell paste)
T1 sequence (P06632 whole entry): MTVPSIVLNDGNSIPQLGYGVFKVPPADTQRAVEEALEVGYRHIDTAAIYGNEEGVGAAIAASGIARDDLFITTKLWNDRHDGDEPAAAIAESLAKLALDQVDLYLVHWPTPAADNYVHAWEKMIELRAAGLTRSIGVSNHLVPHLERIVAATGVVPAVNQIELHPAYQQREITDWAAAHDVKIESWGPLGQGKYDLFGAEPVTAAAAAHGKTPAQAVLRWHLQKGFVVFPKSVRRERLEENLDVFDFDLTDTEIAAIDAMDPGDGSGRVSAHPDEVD
Assay: 2,5-DKG reductase assay: kinetic parameters, substrate specificity, cofactor requirements, pH optimum
Format: biochemical, Corynebacterium sp. ATCC 31090
Conditions: sodium phosphate buffer 150 mM, pH 6.4, 25° C., enzyme 10 μg, read-out: Michaelis constants (Km)
Source text: The following assay conditions were used to determine kinetic parameters: […]

Compound | Km (2,5-DKG 0.43-43 mM) [mM] | Km (NADPH 11-300 μM) [mM]
O=C(O)C(=O)[C@@H](O)[C@H](O)C(=O)CO [2,5-DKG, 2,5-diketogluconic acid] | 15.5 | 
NC(=O)C1=CN([C@@H]2O[C@H](COP(=O)(O)OP(=O)(O)OC[C@H]3O[C@@H](n4cnc5c(N)ncnc54)[C@H](OP(=O)(O)O)[C@@H]3O)[C@@H](O)[C@H]2O)C=CC1 [NADPH] |  | 0.0337
